For assay [1], the target named is GST-Syk Full Protein (human) (Homo sapiens, UniProt P43405). Briefly: Syk kinase inhibition test (HTRF method). It is filed as biochemical. The essentials:
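Human GST-Syk full-length (6.4 nM) phosphorylated biotin-EDPDYEWPSA-NH2 (250 nM) with 100 μM ATP in HEPES pH 7.0/MgCl2 buffer, 2% DMSO, 30 min at room temperature. EDTA stop, then HTRF detection (streptavidin-XL665, Eu anti-phosphotyrosine) after 1 h; 665/620 ratio read.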
For orientation: TR-FRET usually uses a lanthanide donor and a delayed reading to cut background.

Assay [2] concerns cultured human mast cells. As to the kind of experiment: Degranulation inhibition test using cultured human mast cells (IgE cross-linking, β-Hexosaminidase release). It is filed as cell-based. The following applies: Mast cell, cultured human mast cells, read-out: human degranulation ave. IC50. The essentials:
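CD34+ cord-blood cells cultured ≥8 weeks with SCF/IL-6/IL-3; FcεRI primed 5 days with rhIL-4 (1 ng/mL) and hIgE (0.5 μg/mL). Compound (0.1% DMSO) preincubated 10 min at 37 °C, then anti-IgE (final 10 μg/mL) 30 min; released β-hexosaminidase read at 405 nm versus total lysate, IC50 (M).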

[3] abbreviates: HTRF, 100 μM ATP, 30 min room temperature, average, read-out: sykHTRF ave IC50.
Where [4] appears, read: anti-hIgE stimulation, β-Hexosaminidase index, average.
[5] abbreviates: Tables 2-x, thiophene compounds B, read-out: sykHTRK ave IC50.
The mark [6] stands for this setting: Tables 2-x, thiophene compounds B.
The mark [7] stands for this setting: Tables 1-x, compounds A, read-out: sykHTRF ave IC50.

Where a name gives a salt, the structure may show the parent alone. Read-outs that look alike come from different tables or passages of the source. A value given as a limit tells only on which side of the number the result lay.

We go through 35 compounds from US7803801B2, “Aminopyridine compounds having Syk inhibitory activity” (Japan Tobacco, Inc., priority 2005, dated 2010).

Usually IC50 stands for the point on the concentration scale where inhibition reaches its midpoint.

As for `Cc1ccnc(Nc2cccc(-c3cnc([C@H]4CC[C@H](CN5C[C@@H](O)[C@@H](O)C5)CC4)s3)n2)c1` [Compound A-314, (3R,4S)-1-(trans-4-{5-[6-(4-methylpyridin-2-ylamino)pyridin-2-yl]thiazol-2-yl}cyclohexylmethyl)pyrrolidin-3,4-diol], the IC50 in assay [1] (setting [3]) is less than 100 nM; in assay [2] (setting [4]), more than 1000 nM.

`CCOC(=O)c1ncc(-c2cccc(Nc3cc(C)ccn3)n2)s1` [Compound A-28, 5-[6-(4-methylpyridin-2-ylamino)pyridin-2-yl]thiazole-2-carboxylic acid ethyl ester]: the IC50 in assay [1] (setting [3]) is less than 100 nM; in assay [2] (setting [4]) it was 100 to 1000 nM.

Regarding `COC(=O)c1sc(-c2cccc(Nc3cc(C)ccn3)n2)cc1C` [Compound B-36], the IC50 in assay [1] (setting [5]) is 100 to 1000 nM; in assay [2] (setting [6]) it was more than 1000 nM.

`Cc1ccnc(Nc2cccc(-c3cnc(N(C)c4ccc(CC(=O)O)cc4)s3)n2)c1` [Compound A-617, [4-(N-methyl-N-{5-[6-(4-methylpyridin-2-ylamino)pyridin-2-yl]thiazol-2-yl}amino)phenyl]acetic acid dihydrochloride]: the IC50 was less than 100 nM in assay [1] (setting [7]) and more than 1000 nM in assay [2] (Tables 1-x, compounds A).

Take `O=C(O)[C@H]1CC[C@H](c2ncc(-c3cccc(Nc4cc5ccccc5cn4)n3)s2)CC1` [Compound A-215, trans-4-{5-[6-(isoquinolin-3-ylamino)pyridin-2-yl]thiazol-2-yl}cyclohexanecarboxylic acid]: the IC50 is less than 100 nM in assay [1] (setting [3]) and 100 to 1000 nM in assay [2] (setting [4]).

On to `Cc1ccnc(Nc2cccc(-c3cnc(CN4CCC(C(=O)O)CC4)s3)n2)c1` [Compound A-168], for which the IC50 in assay [1] (setting [3]) was 100 to 1000 nM; in assay [2] (setting [4]) it was more than 1000 nM.

Regarding `CNC(=O)CO[C@@H]1CCN(c2ncc(-c3cccc(Nc4cc(C)ccn4)n3)s2)C1` [Compound A-516, N-methyl-2-((R)-1-{5-[6-(4-methylpyridin-2-ylamino)pyridin-2-yl]thiazol-2-yl}pyrrolidin-3-yloxy)acetamide], the IC50 in assay [1] (setting [7]) is less than 100 nM; in assay [2] (Tables 1-x, compounds A), 100 to 1000 nM.

Regarding `Cc1ccnc(Nc2cccc(-c3cnc(N4CCC(C)(C(N)=O)CC4)s3)n2)c1` [Compound A-500, 4-methyl-1-{5-[6-(4-methylpyridin-2-ylamino)pyridin-2-yl]thiazol-2-yl}piperidine-4-carboxamide], the IC50 in assay [1] (setting [7]) is less than 100 nM; in assay [2] (Tables 1-x, compounds A), 100 to 1000 nM.

With `Cc1ccnc(Nc2cccc(-c3ccc(C(N)=O)s3)n2)c1` [Compound B-23, 5-[6-(4-methylpyridin-2-ylamino)pyridin-2-yl]thiophene-2-carboxamide], the IC50 was less than 100 nM in assay [1] (setting [5]) and more than 1000 nM in assay [2] (setting [6]).

As for `Cc1ccnc(Nc2cccc(-c3cnc(N4CC[C@@H](OCC(=O)O)C4)s3)n2)c1` [Compound A-575, ((R)-1-{5-[6-(4-methylpyridin-2-ylamino)pyridin-2-yl]thiazol-2-yl}pyrrolidin-3-yloxy)acetic acid dihydrochloride], the IC50 was less than 100 nM in assay [1] (setting [7]) and more than 1000 nM in assay [2] (Tables 1-x, compounds A).

As for `Cc1ccnc(Nc2cccc(-c3cnc([C@H](Cc4ccccc4)NC(=O)OC(C)(C)C)s3)n2)c1` [Compound A-39], the IC50 in assay [1] (setting [3]) and in assay [2] (setting [4]) was more than 1000 nM throughout.

On to `COC1CCN(c2ncc(-c3cccc(Nc4cc(C)ccn4)n3)s2)CC1` [Compound A-431, N-{6-[2-(4-methoxypiperidin-1-yl)thiazol-5-yl]pyridin-2-yl}-N-(4-methylpyridin-2-yl)amine], for which the IC50 in assay [1] (setting [7]) was less than 100 nM; in assay [2] (Tables 1-x, compounds A), 100 to 1000 nM.

For the compound `CC(=O)c1ccnc(Nc2cccc(-c3cnc(N4CCC[C@H]4C(N)=O)s3)n2)c1` [Compound A-561, (S)-1-{5-[6-(4-acetylpyridin-2-ylamino)pyridin-2-yl]thiazol-2-yl}pyrrolidine-2-carboxamide], the IC50 in assay [1] (setting [7]) was less than 100 nM; in assay [2] (Tables 1-x, compounds A), 100 to 1000 nM.

Turning to `COC(=O)NCCc1ncc(-c2cccc(Nc3cc(C)ccn3)n2)s1` [Compound A-308], the IC50 in assay [1] (setting [3]) and in assay [2] (setting [4]) was 100 to 1000 nM in each case.

Take `C/C(=N\OCCO)c1ncc(-c2cccc(Nc3cc(C)ccn3)n2)s1` [Compound A-35, 1-{5-[6-(4-methylpyridin-2-ylamino)pyridin-2-yl]thiazol-2-yl}ethanone 0-(2-hydroxyethyl)oxime]: the IC50 in assay [1] (setting [3]) was less than 100 nM; in assay [2] (setting [4]), 100 to 1000 nM.

Turning to `Cc1ccnc(Nc2cccc(-c3cnc(CN4CCC[C@H]4CO)s3)n2)c1` [Compound A-379], the IC50 was in the range of 100 to 1000 nM in assay [1] (setting [7]) and 100 to 1000 nM in assay [2] (Tables 1-x, compounds A).

Regarding `Cc1ccnc(Nc2cccc(-c3cnc(N4CC[C@@H](NS(C)(=O)=O)C4)s3)n2)c1` [Compound A-489, N—((R)-1-{5-[6-(4-methylpyridin-2-ylamino)pyridin-2-yl]thiazol-2-yl}pyrrolidin-3-yl)methanesulfonamide], the IC50 in assay [1] (setting [7]) is less than 100 nM; in assay [2] (Tables 1-x, compounds A), 100 to 1000 nM.

On to `Cc1ccnc(Nc2cccc(-c3cnc([C@H]4CC[C@H](C(=O)NC(C)(C)CO)CC4)s3)n2)c1` [Compound A-175], for which the IC50 in assay [1] (setting [3]) and in assay [2] (setting [4]) was 100 to 1000 nM each time.

Regarding `Cc1ccnc(Nc2cccc(-c3cnc(CCc4ccc(CO)cc4)s3)n2)c1` [Compound A-159, [4-(2-{5-[6-(4-methylpyridin-2-ylamino)pyridin-2-yl]thiazol-2-yl}ethyl)phenyl]methanol], the values for the IC50 in assay [1] (setting [3]) and in assay [2] (setting [4]) were less than 100 nM and 100 to 1000 nM, respectively.

As for `Cc1ccnc(Nc2cccc(-c3cnc([C@@H](N)Cc4ccc(OCc5ccccc5)cc4)s3)n2)c1` [Compound A-86], the results for the IC50 in assay [1] (setting [3]) and in assay [2] (setting [4]) were 100 to 1000 nM and more than 1000 nM, respectively.

As to `CC(=O)Oc1ccc(C(=O)N2CCC(c3ncc(-c4cccc(Nc5cc(C)ccn5)n4)s3)CC2)cc1` [Compound A-377], the IC50 in assay [1] (setting [7]) fell in the range of 100 to 1000 nM; in assay [2] (Tables 1-x, compounds A), 100 to 1000 nM.

For the compound `CC(=O)c1ccnc(Nc2cccc(-c3cnc(N4CC[C@@H](O)C4)s3)n2)c1` [Compound A-549, 1-(2-{6-[2-((R)-3-hydroxypyrrolidin-1-yl)thiazol-5-yl]pyridin-2-ylamino}pyridin-4-yl)ethanone], the IC50 in assay [1] (setting [7]) was less than 100 nM; in assay [2] (Tables 1-x, compounds A), 100 to 1000 nM.

`Cc1ccnc(Nc2cccc(-c3cnc(C4CCN(C(=O)N5CCC(O)CC5)CC4)s3)n2)c1` [Compound A-251]: the IC50 in assay [1] (setting [3]) and in assay [2] (setting [4]) was 100 to 1000 nM throughout.

In the case of `Cc1ccnc(Nc2cccc(-c3cnc(N4CCCC(COCC(N)=O)C4)s3)n2)c1` (stereo not shown) [Compound A-499, 2-(1-{5-[6-(4-methylpyridin-2-ylamino)pyridin-2-yl]thiazol-2-yl}piperidin-3-ylmethoxy)acetamide], the IC50 in assay [1] (setting [7]) was less than 100 nM; in assay [2] (Tables 1-x, compounds A) it was 100 to 1000 nM.

Take `CC1(c2ccnc(Nc3cccc(-c4cnc(N5CCC(CC(=O)O)CC5)s4)n3)c2)OCCO1` [Compound A-572, [1-(5-{6-[4-(2-methyl-[1,3]dioxolan-2-yl)pyridin-2-ylamino]pyridin-2-yl}thiazol-2-yl)piperidin-4-yl]acetic acid dihydrochloride]: the IC50 was less than 100 nM in assay [1] (setting [7]) and 100 to 1000 nM in assay [2] (Tables 1-x, compounds A).

Take `Cc1ccnc(Nc2cccc(-c3cnc(C4CCCNC4)s3)n2)c1` (stereo not shown) [Compound A-390]: the IC50 in assay [1] (setting [7]) is 100 to 1000 nM; in assay [2] (Tables 1-x, compounds A), 100 to 1000 nM.

Turning to `Cc1ccnc(Nc2cccc(-c3cnc(Cc4ccc(C(=O)N5CCC(O)CC5)cc4)s3)n2)c1` [Compound A-234], the IC50 in assay [1] (setting [3]) and in assay [2] (setting [4]) was more than 1000 nM throughout.

As to `COC(=O)CCNC(=O)c1ccc(-c2cccc(Nc3cc(C)ccn3)n2)s1` [Compound B-97], the IC50 in assay [1] (setting [5]) was 100 to 1000 nM; in assay [2] (setting [6]) it was more than 1000 nM.

Consider `Cc1ccnc(Nc2cccc(-c3cnc([C@H]4CC[C@H](CNS(C)(=O)=O)CC4)s3)n2)c1` [Compound A-229, N-(trans-4-{5-[6-(4-methylpyridin-2-ylamino)pyridin-2-yl]thiazol-2-yl}cyclohexylmethyl)methanesulfonamide], for which the IC50 was less than 100 nM in assay [1] (setting [3]) and 100 to 1000 nM in assay [2] (setting [4]).

On to `Cc1ccnc(Nc2cccc(-c3cnc(COCC(=O)N(C)C)s3)n2)c1` [Compound A-368], for which the IC50 in assay [1] (setting [3]) and in assay [2] (setting [4]) was 100 to 1000 nM each time.

Turning to `CO/N=C(\N)c1ccc(-c2cccc(Nc3cc(C)ccn3)n2)s1` [Compound B-69], the IC50 in assay [1] (setting [5]) and in assay [2] (setting [6]) was 100 to 1000 nM each time.

`Cc1ccnc(Nc2cccc(-c3cnc(N4CCCC(C(=O)O)C4)s3)n2)c1` (stereo not shown) [Compound A-474, 1-{5-[6-(4-methylpyridin-2-ylamino)pyridin-2-yl]thiazol-2-yl}piperidine-3-carboxylic acid]: the IC50 in assay [1] (setting [7]) is less than 100 nM; in assay [2] (Tables 1-x, compounds A) it was more than 1000 nM.

With `CC(=O)N1CCC(N(C)c2ncc(-c3cccc(Nc4cc(C)ccn4)n3)s2)CC1` [Compound A-458, 1-[4-(N-methyl-N-{5-[6-(4-methylpyridin-2-ylamino)pyridin-2-yl]thiazol-2-yl}amino)piperidin-1-yl]ethanone], the IC50 in assay [1] (setting [7]) is less than 100 nM; in assay [2] (Tables 1-x, compounds A) it was 100 to 1000 nM.

As to `Cc1ccnc(Nc2cccc(-c3ccc(C#N)s3)n2)c1` [Compound B-59], the IC50 in assay [1] (setting [5]) is 100 to 1000 nM; in assay [2] (setting [6]), more than 1000 nM.

For `Cc1ccnc(Nc2cccc(-c3cnc([C@H]4CC[C@H](C(=O)N5CCC(NS(C)(=O)=O)C5)CC4)s3)n2)c1` (stereo partly drawn) [Compound A-312, N-[1-(trans-4-{5-[6-(4-methylpyridin-2-ylamino)pyridin-2-yl]thiazol-2-yl]cyclohexanecarbonyl)pyrrolidin-3-yl}methanesulfonamide], the IC50 in assay [1] (setting [3]) is less than 100 nM; in assay [2] (setting [4]), 100 to 1000 nM.
